In article PMC5218480 (PLoS ONE, 2017):

System: MV-4-11 cells
Assay: Gene expression microarray analysis (Affymetrix PrimeView) and GSEA
Format: cell-based, human
Design: RFU PODN (11730768_x_at) / Fold change /veh PODN (11730768_x_at) / RFU LINC00158 (11744669_a_at) / Fold change /veh LINC00158 (11744669_a_at) / RFU DUSP10 (11751237_a_at) / Fold change /veh DUSP10 (11751237_a_at) / RFU ID3 (11757404_x_at) / Fold change /veh ID3 (11757404_x_at) / RFU PLEKHG5 (11737974_s_at) / Fold change /veh PLEKHG5 (11737974_s_at) / RFU LRRC4B (11730491_at) / Fold change /veh LRRC4B (11730491_at) / RFU GIMAP4 (11747438_a_at) / Fold change /veh GIMAP4 (11747438_a_at) / RFU KRT8 (11758183_x_at) / Fold change /veh KRT8 (11758183_x_at) / RFU CNN1 (11734310_a_at) / Fold change /veh CNN1 (11734310_a_at) / RFU VPS37D (11726825_at) / Fold change /veh VPS37D (11726825_at) / RFU C10orf10 (11716522_x_at) / Fold change /veh C10orf10 (11716522_x_at) / RFU KIR2DL2 /// KIR2DL4 /// KIR2DL5A /// KIR2DL5B /// KIR2DS1 /// KIR2DS2 /// KIR2DS3 /// KIR2DS4 /// KIR3DL3 /// KIR3DL3 /// KIR3DS1 (11738374_at) / Fold change /veh KIR2DL2 /// KIR2DL4 /// KIR2DL5A /// KIR2DL5B /// KIR2DS1 /// KIR2DS2 /// KIR2DS3 /// KIR2DS4 /// KIR3DL3 /// KIR3DL3 /// KIR3DS1 (11738374_at) / RFU C1QL1 (11718748_at) / Fold change /veh C1QL1 (11718748_at) / RFU TMPRSS4 (11747572_a_at) / Fold change /veh TMPRSS4 (11747572_a_at) / RFU HAMP (11756126_x_at) / Fold change /veh HAMP (11756126_x_at) / RFU RNFT2 (11725882_a_at) / Fold change /veh RNFT2 (11725882_a_at) / RFU NR4A2 (11747474_a_at) / Fold change /veh NR4A2 (11747474_a_at) / RFU ABCC12 (11746883_a_at) / Fold change /veh ABCC12 (11746883_a_at) / RFU TMEM136 (11760407_x_at) / Fold change /veh TMEM136 (11760407_x_at) / RFU CLDN22 /// WWC2 (11732394_at) / Fold change /veh CLDN22 /// WWC2 (11732394_at) / RFU HLA-DPB1 (11760878_x_at) / Fold change /veh HLA-DPB1 (11760878_x_at) / RFU SPINT1 (11716480_a_at) / Fold change /veh SPINT1 (11716480_a_at) / RFU GAP43 (11754022_s_at) / Fold change /veh GAP43 (11754022_s_at) / RFU A4GNT (11735810_at) / Fold change /veh A4GNT (11735810_at) / RFU PRB3 (11715151_x_at) / Fold change /veh PRB3 (11715151_x_at) / RFU TUBB4B (11761932_at) / Fold change /veh TUBB4B (11761932_at) / RFU CAPN14 (11732068_a_at) / Fold change /veh CAPN14 (11732068_a_at) / RFU TMCC2 (11721928_a_at) / Fold change /veh TMCC2 (11721928_a_at) / RFU IRGQ (11745062_a_at) / Fold change /veh IRGQ (11745062_a_at) / RFU FAM174B (11720279_a_at) / Fold change /veh FAM174B (11720279_a_at) / RFU TMPRSS4 (11748680_a_at) / Fold change /veh TMPRSS4 (11748680_a_at) / RFU FAM212B (11763350_a_at) / Fold change /veh FAM212B (11763350_a_at) / RFU PLEKHG5 (11743358_a_at) / Fold change /veh PLEKHG5 (11743358_a_at) / RFU ZSCAN30 (11745921_a_at) / Fold change /veh ZSCAN30 (11745921_a_at) / RFU CMKLR1 (11741424_a_at) / Fold change /veh CMKLR1 (11741424_a_at) / RFU LOC101060620 /// MAPK8IP1 (11723275_at) / Fold change /veh LOC101060620 /// MAPK8IP1 (11723275_at) / RFU SPTSSB (11747773_x_at) / Fold change /veh SPTSSB (11747773_x_at) / RFU PRSS12 (11739890_at) / Fold change /veh PRSS12 (11739890_at) / RFU BIN1 (11741810_x_at) / Fold change /veh BIN1 (11741810_x_at) / RFU WNT11 (11732464_a_at) / Fold change /veh WNT11 (11732464_a_at) / RFU C10orf10 (11716521_a_at) / Fold change /veh C10orf10 (11716521_a_at) / RFU C5orf56 (11738089_at) / Fold change /veh C5orf56 (11738089_at) / RFU CYB561 (11721691_x_at) / Fold change /veh CYB561 (11721691_x_at) / RFU ANKRD19P (11752326_a_at) / Fold change /veh ANKRD19P (11752326_a_at) / RFU OR2T12 /// OR2T33 /// OR2T8 (11738714_s_at) / Fold change /veh OR2T12 /// OR2T33 /// OR2T8 (11738714_s_at) / RFU VCAN (11748164_a_at) / Fold change /veh VCAN (11748164_a_at) / RFU JSRP1 (11732532_at) / Fold change /veh JSRP1 (11732532_at) / RFU KRTAP10-11 (11738290_x_at) / Fold change /veh KRTAP10-11 (11738290_x_at) / RFU MYO3A (11730013_a_at) / Fold change /veh MYO3A (11730013_a_at) / RFU EBF3 (11725865_a_at) / Fold change /veh EBF3 (11725865_a_at) / RFU CAMK2N1 (11719241_x_at) / Fold change /veh CAMK2N1 (11719241_x_at) / RFU C5orf56 (11738088_a_at) / Fold change /veh C5orf56 (11738088_a_at) / RFU OLFML3 (11715873_a_at) / Fold change /veh OLFML3 (11715873_a_at) / RFU LOC100653217 /// NTM (11731650_a_at) / Fold change /veh LOC100653217 /// NTM (11731650_a_at) / RFU MAPK11 (11762145_a_at) / Fold change /veh MAPK11 (11762145_a_at) / RFU FIZ1 (11724087_x_at) / Fold change /veh FIZ1 (11724087_x_at) / RFU OASL (11726364_x_at) / Fold change /veh OASL (11726364_x_at) / RFU SOX15 (11748057_x_at) / Fold change /veh SOX15 (11748057_x_at) / RFU CD79A (11719716_a_at) / Fold change /veh CD79A (11719716_a_at) / RFU HIST1H1D (11736915_at) / Fold change /veh HIST1H1D (11736915_at) / RFU CASKIN2 (11723855_a_at) / Fold change /veh CASKIN2 (11723855_a_at) / RFU LOC730098 (11760151_x_at) / Fold change /veh LOC730098 (11760151_x_at) / RFU OR4N2 (11742367_at) / Fold change /veh OR4N2 (11742367_at) / RFU PRRT2 (11749266_a_at) / Fold change /veh PRRT2 (11749266_a_at) / RFU SNX32 (11753110_a_at) / Fold change /veh SNX32 (11753110_a_at) / RFU CDHR5 (11726645_a_at) / Fold change /veh CDHR5 (11726645_a_at) / RFU RCAN1 (11760418_a_at) / Fold change /veh RCAN1 (11760418_a_at) / RFU FAM167A (11723789_a_at) / Fold change /veh FAM167A (11723789_a_at) / RFU FAM26E (11764081_at) / Fold change /veh FAM26E (11764081_at) / RFU ISYNA1 (11749810_s_at) / Fold change /veh ISYNA1 (11749810_s_at) / RFU ACY1 (11761880_at) / Fold change /veh ACY1 (11761880_at) / RFU 11764098_at / Fold change /veh 11764098_at / RFU SAMD14 (11745864_x_at) / Fold change /veh SAMD14 (11745864_x_at) / RFU NPB (11741838_a_at) / Fold change /veh NPB (11741838_a_at) / RFU TMPRSS6 (11731388_a_at) / Fold change /veh TMPRSS6 (11731388_a_at) / RFU KRTAP10-2 (11738614_at) / Fold change /veh KRTAP10-2 (11738614_at) / RFU ARHGAP8 /// PRR5-ARHGAP8 (11727945_x_at) / Fold change /veh ARHGAP8 /// PRR5-ARHGAP8 (11727945_x_at) / RFU KRTAP5-7 /// NADSYN1 (11734609_at) / Fold change /veh KRTAP5-7 /// NADSYN1 (11734609_at) / RFU RASL12 (11751679_a_at) / Fold change /veh RASL12 (11751679_a_at) / RFU CDKN2B (11736163_a_at) / Fold change /veh CDKN2B (11736163_a_at) / RFU PRF1 (11729649_at) / Fold change /veh PRF1 (11729649_at) / RFU, ZNF638 /// ZNF638-IT1 / Fold change vs veh, ZNF638 /// ZNF638-IT1 / RFU, PANK3 / Fold change vs veh, PANK3 / RFU, SH3YL1 / Fold change vs veh, SH3YL1 / RFU, ZEB2 / Fold change vs veh, ZEB2 / RFU, NRIP1 / Fold change vs veh, NRIP1 / RFU, PTTG1IP / Fold change vs veh, PTTG1IP / RFU, CAPN2 / Fold change vs veh, CAPN2 / RFU, MED14 / Fold change vs veh, MED14 / RFU, SNORA58 / Fold change vs veh, SNORA58 / RFU, C1orf63 / Fold change vs veh, C1orf63 / RFU, LRRFIP1 / Fold change vs veh, LRRFIP1 / RFU, NDUFAF7 / Fold change vs veh, NDUFAF7 / RFU, SLC12A2 / Fold change vs veh, SLC12A2 / RFU, IBTK / Fold change vs veh, IBTK / RFU, ESF1 / Fold change vs veh, ESF1 / Fold change vs veh, TMEM50B / RFU, TAOK1 / Fold change vs veh, TAOK1 / RFU, ACBD3 / Fold change vs veh, ACBD3 / RFU, TMA16 / Fold change vs veh, TMA16 / RFU, RWDD3 / Fold change vs veh, RWDD3 / RFU, BCAT1 / Fold change vs veh, BCAT1 / RFU, EDEM3 / Fold change vs veh, EDEM3 / RFU, TMEM33 / Fold change vs veh, TMEM33 / RFU, WDR75 / Fold change vs veh, WDR75 / RFU, AHCTF1 / Fold change vs veh, AHCTF1 / RFU, TFRC / Fold change vs veh, TFRC / RFU, ZDHHC17 / Fold change vs veh, ZDHHC17 / RFU, NOM1 / Fold change vs veh, NOM1 / RFU, ARL8B / Fold change vs veh, ARL8B / RFU, ZBTB11 / Fold change vs veh, ZBTB11 / RFU, TAMM41 / Fold change vs veh, TAMM41 / RFU, KIAA1704 /// LOC100996395 / Fold change vs veh, KIAA1704 /// LOC100996395 / RFU, ING1 / Fold change vs veh, ING1 / RFU, TRMT61B / Fold change vs veh, TRMT61B / RFU, FUBP3 / Fold change vs veh, FUBP3 / RFU, TP53 / Fold change vs veh, TP53 / RFU, TNKS2 / Fold change vs veh, TNKS2 / RFU, ZFP14 / Fold change vs veh, ZFP14 / RFU, ACTR2 / Fold change vs veh, ACTR2 / RFU, PPP3R1 / Fold change vs veh, PPP3R1 / RFU, PIK3R1 / Fold change vs veh, PIK3R1 / RFU, HNRNPA1 / Fold change vs veh, HNRNPA1 / RFU, RNF170 / Fold change vs veh, RNF170 / RFU, ZNF28 / Fold change vs veh, ZNF28 / RFU, RNGTT / Fold change vs veh, RNGTT / RFU, OGT / Fold change vs veh, OGT / RFU, BRD1 / Fold change vs veh, BRD1 / RFU, MARS / Fold change vs veh, MARS / RFU, ZNF655 / Fold change vs veh, ZNF655 / RFU, FAHD1 / Fold change vs veh, FAHD1 / RFU, BDP1 / Fold change vs veh, BDP1 / RFU, LRRCC1 / Fold change vs veh, LRRCC1 / RFU, ARID1A / Fold change vs veh, ARID1A / RFU, ZNF146 / Fold change vs veh, ZNF146 / RFU, ZNF330 / Fold change vs veh, ZNF330 / RFU, GPN3 / Fold change vs veh, GPN3 / RFU, C9orf123 / Fold change vs veh, C9orf123 / RFU, N4BP2L2 / Fold change vs veh, N4BP2L2 / RFU, ARFIP1 / Fold change vs veh, ARFIP1 / RFU, FAM179B / Fold change vs veh, FAM179B / RFU, BCL10 / Fold change vs veh, BCL10 / RFU, UHRF1BP1L / Fold change vs veh, UHRF1BP1L / RFU, BET1 / Fold change vs veh, BET1 / RFU, CNOT2 / Fold change vs veh, CNOT2 / RFU, ZNF268 / Fold change vs veh, ZNF268 / Fold change vs veh, ZNF507 / RFU, DGCR2 / Fold change vs veh, DGCR2 / RFU, WDSUB1 / Fold change vs veh, WDSUB1 / Fold change vs veh, HSP90B1 /// MIR3652 / RFU, ADSS / Fold change vs veh, ADSS / RFU, GK / Fold change vs veh, GK / RFU, ZNF148 / Fold change vs veh, ZNF148 / RFU, TAF9 / Fold change vs veh, TAF9 / RFU, SLC1A5 / Fold change vs veh, SLC1A5 / RFU, SLMO2 / Fold change vs veh, SLMO2 / RFU, ABCC4 / Fold change vs veh, ABCC4 / RFU, LOC101060439 /// RAP1B / Fold change vs veh, LOC101060439 /// RAP1B / RFU, RFX7 / Fold change vs veh, RFX7 / RFU, GTPBP10 / Fold change vs veh, GTPBP10 / RFU, CNEP1R1 / Fold change vs veh, CNEP1R1 / RFU, BIVM-ERCC5 /// ERCC5 / Fold change vs veh, BIVM-ERCC5 /// ERCC5 / RFU, ILF3 / Fold change vs veh, ILF3 / RFU 11762660_at / Fold change /veh 11762660_at / RFU VCAN (11757783_s_at) / Fold change /veh VCAN (11757783_s_at) / RFU DDX43 (11728927_at) / Fold change /veh DDX43 (11728927_at) / RFU KRT8 (11758188_x_at) / Fold change /veh KRT8 (11758188_x_at) / RFU NKD1 (11759106_at) / Fold change /veh NKD1 (11759106_at) / RFU SRD5A1 (11742802_a_at) / Fold change /veh SRD5A1 (11742802_a_at) / RFU TPSAB1 /// TPSB2 (11721975_s_at) / Fold change /veh TPSAB1 /// TPSB2 (11721975_s_at) / RFU GSTM3 (11746129_a_at) / Fold change /veh GSTM3 (11746129_a_at) / RFU IL23R (11737362_x_at) / Fold change /veh IL23R (11737362_x_at) / RFU TMEM51 (11727254_a_at) / Fold change /veh TMEM51 (11727254_a_at) / RFU PIWIL2 (11732686_x_at) / Fold change /veh PIWIL2 (11732686_x_at) / RFU ORM1 (11744905_x_at) / Fold change /veh ORM1 (11744905_x_at) / RFU CCDC152 (11743942_at) / Fold change /veh CCDC152 (11743942_at) / RFU ECM1 (11717891_a_at) / Fold change /veh ECM1 (11717891_a_at) / RFU IL23R (11748794_a_at) / Fold change /veh IL23R (11748794_a_at) / RFU TNFAIP8L3 (11732012_x_at) / Fold change /veh TNFAIP8L3 (11732012_x_at) / RFU MBOAT4 (11741988_at) / Fold change /veh MBOAT4 (11741988_at) / RFU 11764193_at / Fold change /veh 11764193_at / RFU TMEM53 (11763286_at) / Fold change /veh TMEM53 (11763286_at) / RFU MAGEB2 (11727129_at) / Fold change /veh MAGEB2 (11727129_at) / RFU TMEM200A (11744735_a_at) / Fold change /veh TMEM200A (11744735_a_at) / RFU CCDC152 (11751479_a_at) / Fold change /veh CCDC152 (11751479_a_at) / RFU FAM211A (11726209_a_at) / Fold change /veh FAM211A (11726209_a_at) / RFU RGS16 (11746705_a_at) / Fold change /veh RGS16 (11746705_a_at) / RFU VCAN (11755009_s_at) / Fold change /veh VCAN (11755009_s_at) / RFU RHOB (11743442_s_at) / Fold change /veh RHOB (11743442_s_at) / RFU RGS16 (11720943_a_at) / Fold change /veh RGS16 (11720943_a_at) / RFU RGS16 (11720944_at) / Fold change /veh RGS16 (11720944_at) / RFU, VPS4B / Fold change vs veh, VPS4B / RFU, CREB1 / Fold change vs veh, CREB1 / RFU, DNAJC13 / Fold change vs veh, DNAJC13 / RFU, GNAQ / Fold change vs veh, GNAQ / RFU, CDK5R1 / Fold change vs veh, CDK5R1 / RFU, ZRANB3 / Fold change vs veh, ZRANB3 / RFU, CUL4A / Fold change vs veh, CUL4A / RFU, CCNY / Fold change vs veh, CCNY / RFU, UFL1 / Fold change vs veh, UFL1 / RFU, COG3 / Fold change vs veh, COG3 / RFU, DIAPH2 / Fold change vs veh, DIAPH2 / RFU, SKA2 / Fold change vs veh, SKA2 / RFU, AFF3 / Fold change vs veh, AFF3 / RFU, LMF1 / Fold change vs veh, LMF1 / RFU, IPO11 / Fold change vs veh, IPO11 / RFU, DFFB / Fold change vs veh, DFFB / RFU, FOXP1 / Fold change vs veh, FOXP1 / RFU, CARD8 / Fold change vs veh, CARD8 / RFU, STRN3 / Fold change vs veh, STRN3 / RFU, ADK / Fold change vs veh, ADK / RFU, RASSF2 / Fold change vs veh, RASSF2 / RFU, WIPF1 / Fold change vs veh, WIPF1 / RFU, LARP1B / Fold change vs veh, LARP1B / RFU, RASA1 / Fold change vs veh, RASA1 / RFU, RB1 / Fold change vs veh, RB1 / RFU, PPFIA1 / Fold change vs veh, PPFIA1 / RFU, MAT2A / Fold change vs veh, MAT2A / RFU, CCT5 / Fold change vs veh, CCT5 / RFU, WDR92 / Fold change vs veh, WDR92 / RFU, CUX1 / Fold change vs veh, CUX1 / RFU, TTC7A / Fold change vs veh, TTC7A / RFU, TMEM135 / Fold change vs veh, TMEM135 / RFU, DEPTOR / Fold change vs veh, DEPTOR / RFU, CPM / Fold change vs veh, CPM / RFU, DNAJB6 / Fold change vs veh, DNAJB6 / RFU, CACNA2D3 / Fold change vs veh, CACNA2D3 / RFU, DTX4 / Fold change vs veh, DTX4 / RFU, TFCP2 / Fold change vs veh, TFCP2 / RFU, GMCL1 /// GMCL1P1 / Fold change vs veh, GMCL1 /// GMCL1P1 / RFU, AEBP2 / Fold change vs veh, AEBP2 / RFU, SNHG1 /// SNORD22 /// SNORD25 /// SNORD26 /// SNORD27 /// SNORD28 /// SNORD29 /// SNORD31 / Fold change vs veh, SNHG1 /// SNORD22 /// SNORD25 /// SNORD26 /// SNORD27 /// SNORD28 /// SNORD29 /// SNORD31 / Fold change (Aza/veh), C12orf56 (ProbeSet 11735607_a_at) / Fold change (ACY-1035/veh), C12orf56 (ProbeSet 11735607_a_at) / Fold change (Aza/veh), FGFR1OP (ProbeSet 11751329_s_at) / Fold change (ACY-1035/veh), FGFR1OP (ProbeSet 11751329_s_at) / Fold change (Aza/veh), VPS36 (ProbeSet 11739960_a_at) / Fold change (ACY-1035/veh), VPS36 (ProbeSet 11739960_a_at) / RFU SYPL1 (11715823_x_at) / Fold change /veh SYPL1 (11715823_x_at) / RFU IGFBP7 (11715501_s_at) / Fold change /veh IGFBP7 (11715501_s_at) / RFU REEP3 (11722064_at) / Fold change /veh REEP3 (11722064_at) / RFU IGLL1 (11728026_x_at) / Fold change /veh IGLL1 (11728026_x_at): dose or concentration left out as unconfirmed
Conditions: ProbeSet 11725141_a_at; LIST B

## Nc1ncn([C@@H]2O[C@H](CO)[C@@H](O)[C@H]2O)c(=O)n1 [azacitidine]
  Fold change vs veh, FUBP3: 0.84
